Measured values taken from patent publication US11725038B2 (priority 2007, dated 2023).
Positions count from the first letter of the chain named.

Assays:
[1] = molecular target: T1, mutant (M287L) mouse glycine α1 receptor (Mus musculus, UniProt Q64018, M315L); conditions: M287L mutation versus wild-type; cited from earlier work
T1 sequence (Q64018 29-457 M315L): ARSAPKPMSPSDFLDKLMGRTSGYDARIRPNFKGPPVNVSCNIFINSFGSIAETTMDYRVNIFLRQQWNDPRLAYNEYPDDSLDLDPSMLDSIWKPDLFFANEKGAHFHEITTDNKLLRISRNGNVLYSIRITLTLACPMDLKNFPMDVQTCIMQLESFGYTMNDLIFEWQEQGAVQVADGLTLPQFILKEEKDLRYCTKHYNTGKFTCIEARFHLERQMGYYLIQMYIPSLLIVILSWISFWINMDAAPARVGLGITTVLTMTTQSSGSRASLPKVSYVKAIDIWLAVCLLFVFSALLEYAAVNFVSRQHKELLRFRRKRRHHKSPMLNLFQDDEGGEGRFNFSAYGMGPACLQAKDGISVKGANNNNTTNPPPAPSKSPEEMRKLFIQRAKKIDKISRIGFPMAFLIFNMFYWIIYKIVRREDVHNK

[2] = tested on: formalin-induced nociceptive behavior; experiment: rat formalin model of pain; assay type: in vivo
Experimental: For in vivo studies, rats were subcutaneously injected with vHGlyRα1 or vHG, a control vector without al GlyR, into the plantar surface of the right hind foot. Analgesic effects of viral injections were assessed one week later by subcutaneous injection of formalin.
Specifically, 3-month-old male Sprague-Dawley rats (225-250 g) were injected with 200 μl (1×10^8 plaque forming units) of either vHGlyRα1 or vHG into the plantar surface of the right hind foot. One week later the analgesic properties of the vectors was assessed by subcutaneously injecting 50 μl of 2.5% formalin into the right hind foot and assessing pain-related behaviors as previously described (Goss et al., Gene Ther., 8, 551-6 (2001)). […] The beginning of second phase pain varied between animals from 20 to 40 minutes; this variation was independent of the vector used.

[3] = molecular target: T2, vHGlyRα1 infected HEK 293T cells (Homo sapiens, UniProt P23415); experiment: glycine-mediated whole-cell currents, voltage-clamp recording; assay type: cell-based; conditions: for mean peak current: 24 hours post-infection, MOI 10; for percent desensitization: 100×(1−ISS/Ipeak)
T2 construct: expressed in transfected cells; host or cells: HEK 293T cells infected with replication-defective HSV vector vHGlyRα1 (HCMV promoter), MOI 10
T2 sequence (P23415 29-457): T1 sequence (Q64018 29-457 M315L) with L287M, D334E, G337A, N368S, K429Q
Experimental: (§1) Human embryonic kidney (HEK) 293T cells were maintained as previously described (Qian et al., J. Physiol., 562, 319-31 (2005)). For recordings, HEK 293T cells were plated onto glass coverslips pretreated with poly-D-lysine (0.1 mg/ml) and rat-tail collagen (0.1 mg/ml; BD Biosciences, San Jose, Calif.) in 35 mm culture dishes at 1-2×10^5 cells per dish. 24 hours after plating, the cells were infected with the GlyR-HSV construct. For infections the growth medium was removed, the cells were washed twice with serum free growth medium, and vHGlyRα1 was added at a multiplicity of infection (MOI) of 10. The cells were then incubated at 37° C. for 1 hour. Following incubation, 1.5 ml of growth medium (with serum) was added and the cells were incubated for an additional 24 hours at 37° C. Recordings were then performed 24 hours post-infection at room temperature. Glycine-mediated whole-cell currents were recorded with an Axopatch 200 amplifier (Molecular Devices, Union City, Calif.) in voltage-clamp mode. Solutions were delivered via an in-house fabricated fast perfusion system (Qian et al., J. Physiol., 538, 65-77 (2002)). The external solution contains (in mM): 140 NaCl, 5 KCl, 2 CaCl2), 1 MgCl2, and 10 HEPES; pH is 7.2+0.05, adjusted with NaOH and osmolality 290+10 adjusted with sucrose as needed. The internal solution contains (in mM): 140 CsCl, 1 CaCl2), 1 MgCl2, 2 MgATP, 10 HEPES, and 10 EGTA; pH is 7.3+0.05, adjusted with CsOH and osmolality 300+0.05. Data were recorded with a Digidata 1322A digitizer under the control of pClamp 9.2 software (Molecular Devices) and all analyses were performed with Clampfit 9.2 (Molecular Devices) or Origin 7.0 (OriginLab, Northampton, Mass.). Percent desensitization was measured as 100×(1−ISS/Ipeak), where ISS and IPeak are the amplitudes of current at steady state and peak, respectively.

[4] = tested on: uninfected HEK 293T cells; conditions: uninfected HEK 293T cells (N=4)
Experimental: as §1, with “Solutions were delivered via an in-house fabricated fast perfusion system (Qian et al., J. Physiol., 538, 65-77 (2002)). The external solution contains (in mM): 140 NaCl, 5 KCl, 2 CaCl2), 1 MgCl2, and 10 HEPES; pH is 7.2+0.05, adjusted with NaOH and osmolality 290+10 adjusted with sucrose as needed. The internal solution contains (in mM): 140 CsCl, 1 CaCl2), 1 MgCl2, 2 MgATP, 10 HEPES, and 10 EGTA; pH is 7.3+0.05, adjusted with CsOH and osmolality 300+0.05.” left out

[5] = higher glycine concentration (1 mM)
[6] = lower glycine concentration (50 uM)

## FC(F)OC(F)(F)C(F)Cl (stereo not shown) [enflurane]
[1]
  sensitivity of the receptor to the volatile anesthetic: greatly enhanced sensitivity

## NCC(=O)O [glycine]
[2]; vHG transfected animals (control vector)
  nociceptive behavior following glycine application: small, transient, non-significant dip
[2]; vHGlyRα1-infected animals, 50 μl of 100 mM glycine at the 30 minute time point
  second phase pain following injection of glycine: significantly reduced
[3]; 50 uM glycine
  mean peak current: −3.57+0.59 nA
[3]; 1 mM glycine
  mean peak current: −9.25+1.47 nA
[3]; [5]
  10-90% rise time: 11.4 ± 1.0 ms
  percent desensitization: 89.8+1.1%
[3]; [6]
  10-90% rise time: 265.2 ± 79.1 ms
  percent desensitization: 73.4+7.3%
[4]
  current response to application of glycine: failed to elicit a current response
